Columns and labels:
THP-1 cells = test: RT-qPCR gene expression in THP-1 cells; assay type: cell-based; settings: for p21 mRNA expression: THP-1 cells, 1 μM, 24 h
Description: NucleoSpin™ RNA Plus Isolation Kit (Macherey Nagel™, Dueren, Germany, 740955.50) and M-MLV Reverse Transcriptase kit (Thermo Fisher Scientific, Waltham, MA, USA, #28025013) protocols were employed for RNA isolation and cDNA synthesis, respectively, with 500 ng of RNA converted to cDNA for each sample. Gene expression levels were quantified with qRT–PCR method using a LightCycler 480 SYBR Green I Master (Roche Diagnostics, Penzberg, Germany, #50-720-3180) and normalized to β-actin or GAPDH. Briefly, 10 ng of cDNA template was amplified using 10 μL LightCycler 480 SYBR Green I Master (Roche Diagnostics), and gene-specific primers (Table S1) mixed in a final volume of 20 μL. The samples were incubated at 95 °C for 5 minutes, followed by 40 cycles of 95 °C for 10 seconds, 55 °C for 30 seconds, and 72 °C for 1 second. The relative amounts of gene expressions were calculated with the 2^(−ΔΔCT) method. All analyses were performed in duplicates and three biological replicas.
Figure 4 Assessment of biological activity through changes in methylation or acetylation and cell differentiation (A–C). Colored graphs illustrate epidrug targets and visualize expected outcomes upon target inhibition. Blue cylinders represent histone octomers (A,B) and green tubes represent microtubules (C). […] Histone methylation, histone acetylation, and α-tubulin acetylation levels were quantified from Western blot band intensities (Figure S18). Full Western blot images can be found in Figure S30. (D,E) Expression levels of mRNA were measured by RT-qPCR analysis and were normalized to two housekeeping genes, β-actin and GAPDH, for p21 and CD11b and CD86. […] Relative expression was determined with the 2(^−ΔΔCT) method, and the data are represented as the average ± standard error of the mean of two biological repeats with technical duplicates. (* p < 0.05, ** p < 0.01 student t-test). Illustrations were generated in BioRender.com.

HDAC-3/NcoR2 = target: T1, HDAC-3/NcoR2 (Homo sapiens, UniProt O15379); test: HDAC-Glo I/II enzyme assay, HDAC3; assay type: biochemical; settings: ± standard error, three independent measurements
T1 construct: purchased BPS Bioscience 50003

K-562 = test: Cell Titer-Glo cell viability, K-562; assay type: cell-based; settings: Homo sapiens, K562; 120 h, ± standard deviation, three biological repeats; read-out: IC50 cell viability K-562
MOLM-13 = test: Combination treatment with doxorubicin, MOLM-13 cell viability; assay type: cell-based; settings: iDual 0.5 μM, iHDAC6 0.5 μM, GSK2879552 1.25 μM, ricolinostat […], 72 h then + doxorubicin 2 nM 48 h

T1 sequence (O15379 whole entry): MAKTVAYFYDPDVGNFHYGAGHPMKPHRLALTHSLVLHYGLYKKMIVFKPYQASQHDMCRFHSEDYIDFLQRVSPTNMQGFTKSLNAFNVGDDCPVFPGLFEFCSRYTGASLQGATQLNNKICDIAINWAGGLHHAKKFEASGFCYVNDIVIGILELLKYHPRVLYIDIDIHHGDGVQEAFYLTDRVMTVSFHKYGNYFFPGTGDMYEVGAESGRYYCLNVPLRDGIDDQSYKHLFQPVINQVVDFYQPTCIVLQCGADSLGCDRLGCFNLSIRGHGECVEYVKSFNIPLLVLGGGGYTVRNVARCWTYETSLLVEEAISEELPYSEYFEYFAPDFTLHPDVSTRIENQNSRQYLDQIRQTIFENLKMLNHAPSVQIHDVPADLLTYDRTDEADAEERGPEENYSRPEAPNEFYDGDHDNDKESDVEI
T1 sequence (Q9Y618 395-489 partner limits assumed): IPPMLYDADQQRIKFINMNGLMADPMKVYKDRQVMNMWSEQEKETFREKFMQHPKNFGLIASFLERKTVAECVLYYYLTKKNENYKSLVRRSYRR

`O=C(NO)c1ccc(CN2CCC(CN[C@@H]3C[C@H]3c3ccccc3)CC2)cc1` (relative stereo) [iDual] was tested, and the ATM expression increase (THP-1 cells; THP-1, 5 μM, 72 h) was “~ two-fold”, the ATR expression increase (THP-1 cells; THP-1, 5 μM, 72 h) was “~ two-fold” and the “expression of a panel of ABC transporters” value (THP-1 cells; THP-1, 5 μM, 72 h) was “no decrease”. The “expression of doxorubicin sensitizer genes (AGPAT9, ALOX5, BTG1, HIPK2, IFI44L, LRP1)” value (THP-1 cells; THP-1, 5 μM, 72 h, all targets of Table 3 except Wnt7B) was “upregulated”, the Rad51 expression increase (THP-1 cells; THP-1, 5 μM, 72 h, p ≤ 0.001) was “three-fold” and the “p21 mRNA expression” value (THP-1 cells) was “increased”. The IC50 (HDAC-3/NcoR2) was 2.29 ± 0.14 µM, the IC50 (K-562) was 16.6 ± 2.7 µM and the “cell viability after priming with compound and co-treatment with doxorubicin 2 nM” value (MOLM-13) was “greatest decrease”.

For `O=C(NO)c1ccc(CN2CCC(CNC3(c4ccccc4)CC3)CC2)cc1` [iHDAC6], the “p21 mRNA expression” value (THP-1 cells) was “increased”, the IC50 (HDAC-3/NcoR2) was 4.09 ± 0.26 µM and the IC50 (K-562) was 17.6 ± 1.6 µM. For the same molecule, the “cell viability after priming with compound and co-treatment with doxorubicin 2 nM” value (MOLM-13) was “relatively ineffective”.
